Test results taken from patent publication US11607421B2, “Ethanolamine-based lipid biosynthetic compounds, method of making and use thereof” (Metanoi Therapeutics, Inc., priority 2016, dated 2023).

Experiments:
PC-3 cells [1] = test: Oxygen consumption rate (OCR), oxygen electrode; type: cell-based, human; settings: 2 mg/ml Etn, 48 h, 1×10^6 cells/ml
Protocol: (§1) OCR was measured using an oxygen electrode.
OCRs were measured using a computer-interfaced oxygen electrode (Hansatech Instruments, Inc., Norfolk, England) by monitoring the initial rate of oxygen consumption at 37° C. and atmospheric oxygen concentration (230 μM O2).

HCT116 = HCT116 colon tumor xenograft; settings: 40 mg/kg Etn oral, 2 weeks
DU145 [2] = test: MTT cell proliferation assay; type: cell-based, human; settings: 0.5 mg/ml Etn, 48 h; range given for PC-3, DU145 and C4-2B together
Protocol: (§2) After 48 h, drug containing medium was replaced by medium containing MTT (tetrazolium bromide) at a concentration of 0.5 mg/ml. The yellow tetrazolium salt is reduced to insoluble purple formazan by viable cells. After 4 h of incubation in dark, formazan crystals produced by viable cells were dissolved by 200 μl DMSO and the amount of formazan crystals formed was quantified by recording the absorbance at 570 nm using multi-well plate reader. […] After 10 days, colonies were fixed with 4% formaldehyde, stained with crystal violet and counted.

[3] = tested on: pRb, Cdk4, Cdk2, p21, c-PARP, Bim, Bcl-2; test: Immunoblot of cell lysates; type: cell-based, human; settings: PC-3 cells, 2 mg/ml Etn for 48 h
Protocol: as §1
Proteins were resolved by polyacrylamide gel electrophoresis and transferred onto polyvinylidene difluoride membranes (Millipore, Billerica, Mass., USA). The membranes were blocked in Tris-buffered saline containing 0.05% Tween-20 and 5% fat-free dry milk and incubated first with primary antibodies and then with horseradish peroxidase-conjugated secondary antibodies. Specific proteins were visualized with enhanced chemiluminescence detection reagent according to the manufacturer's instructions (Pierce Biotechnology, Rockford, Ill., USA).

DU145 [4] = test: DU145 prostate tumor xenograft; settings: 40 mg/kg Etn, oral gavage, 4 weeks
CYP2A6 = CYP2A6 (Homo sapiens, UniProt P11509); test: CYP inhibition in human liver microsomes
Sequence of CYP2A6 (P11509 whole entry): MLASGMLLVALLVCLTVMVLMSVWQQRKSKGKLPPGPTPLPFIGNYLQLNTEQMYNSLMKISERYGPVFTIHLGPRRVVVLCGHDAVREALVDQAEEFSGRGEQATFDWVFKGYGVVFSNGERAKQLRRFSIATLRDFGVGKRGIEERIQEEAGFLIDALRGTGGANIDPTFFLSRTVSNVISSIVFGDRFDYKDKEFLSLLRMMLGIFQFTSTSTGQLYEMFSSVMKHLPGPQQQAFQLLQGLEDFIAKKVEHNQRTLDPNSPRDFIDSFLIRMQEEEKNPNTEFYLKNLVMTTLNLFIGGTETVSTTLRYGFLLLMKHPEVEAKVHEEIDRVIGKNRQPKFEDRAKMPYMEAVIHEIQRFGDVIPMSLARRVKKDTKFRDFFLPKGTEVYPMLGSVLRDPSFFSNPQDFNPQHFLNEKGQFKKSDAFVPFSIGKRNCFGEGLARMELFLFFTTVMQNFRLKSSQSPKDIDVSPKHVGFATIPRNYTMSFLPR

in vivo = test: in vivo; set-up: species or system SD rats; settings: SD, rat, po, 40 mg/kg
Text: These formulations differ in pH and/or acid used to adjust the pH.

PC-3-luc tumors = test: Glucose and glutamine contents in tumors (LC-MS/MS); settings: 40 mg/kg Etn-treated tumors vs untreated control
PC-3 cells [5] = test: Clonogenic cell survival (colony) assay; type: cell-based, human; settings: 2 mg/ml, 48 h treatment, colonies after 10 days
Protocol: Next, a clonogenic cell survival assay was performed to assess the reproductive capacity of cells upon drug removal.
as §2

PC-3 cells [6] = test: Glucose and glutamine contents in cultured cells (LC-MS/MS); settings: 2 mg/ml Etn for 48 h vs control cells
[7] = Acute toxicity, single oral limit dose; type: in vivo, Sprague-Dawley (SD) rats; settings: single oral dose of 5 g/kg, five male and five female rats, monitored one week
CYP2C9 = CYP2C9 (Homo sapiens, UniProt P11712); test: CYP inhibition in human liver microsomes
Sequence of CYP2C9 (P11712 whole entry): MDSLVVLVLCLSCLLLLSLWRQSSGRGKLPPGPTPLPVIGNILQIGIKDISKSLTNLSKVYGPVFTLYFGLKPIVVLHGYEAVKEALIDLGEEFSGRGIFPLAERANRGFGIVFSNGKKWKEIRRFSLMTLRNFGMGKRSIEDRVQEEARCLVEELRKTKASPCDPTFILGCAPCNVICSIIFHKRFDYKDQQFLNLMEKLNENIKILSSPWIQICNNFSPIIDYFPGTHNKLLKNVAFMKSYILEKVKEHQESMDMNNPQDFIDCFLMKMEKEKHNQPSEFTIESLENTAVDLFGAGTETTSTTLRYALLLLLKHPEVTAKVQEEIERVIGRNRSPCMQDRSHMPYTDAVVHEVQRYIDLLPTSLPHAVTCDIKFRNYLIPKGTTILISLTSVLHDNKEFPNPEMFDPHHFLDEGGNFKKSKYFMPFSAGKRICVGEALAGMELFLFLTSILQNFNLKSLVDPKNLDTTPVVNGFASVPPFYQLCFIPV

With `NCCO` [Etn, monoethanolamine] the “reduction of OCR compared to controls” value (PC-3 cells [1]) was about 26%, the body weight (HCT116) was “did not change significantly” and the reduction of survival (DU145 [2]) was 30-52%. The “protein expression of apoptosis regulators” value [3] was “an increase in protein expression of proapoptotic markers (c-PARP and Bim) and a decrease in antiapoptotic molecules (Bcl-2)”, the “protein expression of cell-cycle regulators” value [3] was “downregulated protein expression of pRb, Cdk4, and Cdk2, and upregulated p21 expression” and the “reduction in tumor volume” value (DU145 [4]) was about 42%. The “reduction in tumor weight” value (DU145 [4]) was about 29%, the IC50 (CYP2A6) was over 100 µM and the Tmax (in vivo; female, pH 5) was 19.8 min. It also gave an AUC(0-t) (in vivo; female, pH 5, AUClast) of 33800 ng·h/mL, a Cmax (in vivo; female, pH 5, Cmax) of 24100 ng/mL and a Tmax (in vivo; female, pH 7.4) of 19.8 min. The AUC(0-t) (in vivo; female, pH 7.4, AUClast) was 29000 ng·h/mL, the Cmax (in vivo; female, pH 7.4, Cmax) was 25000 ng/mL and the Tmax (in vivo; male, pH 5) was 19.8 min. For the same molecule, the AUC(0-t) (in vivo; male, pH 5, AUClast) was 29500 ng·h/mL, the Cmax (in vivo; male, pH 5, Cmax) was 27100 ng/mL and the Tmax (in vivo; male, pH 7.4) was 19.8 min. For the same molecule, the AUC(0-t) (in vivo; male, pH 7.4, AUClast) was 27300 ng·h/mL, the Cmax (in vivo; male, pH 7.4, Cmax) was 23700 ng/mL and the “glucose and glutamine contents” value (PC-3-luc tumors) was “significantly reduced”. The “decrease in colony numbers compared to control cells” value (PC-3 cells [5]) was about 97%, the “glucose and glutamine contents” value (PC-3 cells [6]) was “significantly reduced” and the acute toxicity [7] was “all rats were alive and did not display any sign of distress or toxicity”. For the same molecule, the IC50 (CYP2C9) was over 100 µM.
